ChEMBL document CHEMBL4130439, “Oral Ingestion and Intraventricular Injection of Curcumin Attenuates the Effort-Related Effects of the VMAT-2 Inhibitor Tetrabenazine: Implications for Motivational Symptoms of Depression” (2017)
Activity calls are given as the source filed them. No cut-off for these calls is given here.

Assays:
[1] = tested on: Rattus norvegicus; assay: Inhibition of effort-related effects of TBZ in 90 mins TBZ pretreated Harlan Sprague Dawley rat assessed as increase in TBZ-induced lever presses at 4 to 8 microg, icv administered via chronic indwelling cannulae 20 mins prior to testing measured for 30 mins; assay type: functional, organism-based
[2] = tested on: Rattus norvegicus; assay: Inhibition of effort-related effects of TBZ in 90 mins TBZ pretreated Harlan Sprague Dawley rat assessed as decrease in TBZ-induced chow intake at 4 to 8 microg, icv administered via chronic indwelling cannulae 20 mins prior to testing measured for 30 mins; assay type: functional, organism-based
[3] = tested on: Rattus norvegicus; assay: Inhibition of effort-related effects of TBZ in Harlan Sprague Dawley rat assessed as increase in TBZ-induced lever presses at 160 mg/kg, po administered 3 hrs prior to testing followed by coadministration with TBZ at 90 mins prior to testing measured for 30 mins; assay type: functional, organism-based
[4] = tested on: Rattus norvegicus; assay: Ratio of compound effect for TBZ-induced lever presses in icv administered Harlan Sprague Dawley rat to compound effect for TBZ-induced lever presses in orally administered Harlan Sprague Dawley rat; assay type: functional
[5] = tested on: Rattus norvegicus; assay: Inhibition of effort-related effects of TBZ in Harlan Sprague Dawley rat assessed as increase in TBZ-induced lever presses at 80 to 160 mg/kg, po administered 2 hrs prior to testing followed by TBZ addition at 90 mins prior to testing measured for 30 mins; assay type: functional, organism-based
[6] = tested on: Rattus norvegicus; assay: Inhibition of effort-related effects of TBZ in Harlan Sprague Dawley rat assessed as decrease in TBZ-induced chow intake at 80 to 160 mg/kg, po administered 2 hrs prior to testing followed by TBZ addition at 90 mins prior to testing measured for 30 mins; assay type: functional, organism-based
[7] = tested on: Rattus norvegicus; assay: Ratio of compound effect for TBZ-induced chow intake in icv administered Harlan Sprague Dawley rat to compound effect for TBZ-induced chow intake in orally administered Harlan Sprague Dawley rat; assay type: functional
[8] = tested on: Rattus norvegicus; assay: Inhibition of effort-related effects of TBZ in Harlan Sprague Dawley rat assessed as decrease in TBZ-induced chow intake at 160 mg/kg, po administered 3 hrs prior to testing followed by coadministration with TBZ at 90 mins prior to testing measured for 30 mins; assay type: functional, organism-based

COc1cc(/C=C/C(=O)CC(=O)/C=C/c2ccc(O)c(OC)c2)ccc1O [CURCUMIN]
inhibition [1]: Active
inhibition [2]: Active
inhibition [3]: Active
Ratio [4]: >1000
inhibition [5]: inactive
inhibition [6]: inactive
Ratio [7]: >1000
inhibition [8]: Active
